Laboratory results reported in patent US20230111310A1, “CARBOXYLIC ACID DERIVATIVE-SUBSTITUTED IMINO ARYL COMPOUND, PREPARATION METHOD THEREFOR, HERBICIDAL COMPOSITION AND USE THEREOF” (Qingdao Kingagroot Chemical Compound Co., Ltd., priority 2020, published 2023).

What was measured:
Assay in all cases: Weeding effect in post-emergence stage
Assay type in all cases: in vivo
Echinochloa crusgalli = conditions: for Weeding effect in post-emergence stage, Echinochloa crusgalli: level of fresh weight growth control rate; for Weeding effect in post-emergence stage, Echinochloa crusgalli (level): fresh weight control rate level
Procedure, shortened: (§1)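 Compound, dissolved in acetone and diluted in water with Tween 80 plus methyl oleate EC (1.5 liter/ha), is sprayed onto 2-3 leaf potted plants. Rates span 7.5–500 g/ha. After 3 weeks of greenhouse culture, weeding effect is counted as the mean of triplicates.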

Setaria viridis = conditions: for Weeding effect in post-emergence stage, Setaria viridis: level of fresh weight growth control rate; for Weeding effect in post-emergence stage, Setaria viridis (level): fresh weight control rate level
Procedure, shortened: as §1

Abutilon theophrasti = conditions: for Weeding effect in post-emergence stage, Abutilon theophrasti: level of fresh weight growth control rate; for Weeding effect in post-emergence stage, Abutilon theophrasti (level): fresh weight control rate level
Procedure, shortened: as §1

Eleusine indica = conditions: for Weeding effect in post-emergence stage, Eleusine indica: level of fresh weight growth control rate; for Weeding effect in post-emergence stage, Eleusine indica (level): fresh weight control rate level
Procedure, shortened: as §1

Digitaria sanguinalis = conditions: for Weeding effect in post-emergence stage, Digitaria sanguinalis: level of fresh weight growth control rate; for Weeding effect in post-emergence stage, Digitaria sanguinalis (level): fresh weight control rate level
Procedure, shortened: as §1

Alopecurus japonicus = conditions: for Weeding effect in post-emergence stage, Alopecurus japonicus: level of fresh weight growth control rate; for Weeding effect in post-emergence stage, Alopecurus japonicus (level): fresh weight control rate level
Procedure, shortened: as §1

Row | SMILES | Weeding effect in post-emergence stage, Echinochloa crusgalli (Echinochloa crusgalli; Dose 15 g/ha) | Weeding effect in post-emergence stage, Setaria viridis (Setaria viridis; Dose 15 g/ha) | Weeding effect in post-emergence stage, Abutilon theophrasti (Abutilon theophrasti; Dose 15 g/ha) | Weeding effect in post-emergence stage, Eleusine indica (Eleusine indica; Dose 15 g/ha) | Weeding effect in post-emergence stage, Digitaria sanguinalis (Digitaria sanguinalis; Dose 15 g/ha) | Weeding effect in post-emergence stage, Alopecurus japonicus (Alopecurus japonicus; Dose 15 g/ha) | also measured
1 | CCOC(=O)[C@@H](C)O/N=C/c1cc(-n2c(=O)n(C)c(=S)n(C)c2=O)c(F)cc1C(F)(F)F [86(R)] | 4 (Level 4: growth control rate is greater than or equal to 60% and less than 85%) | 4 (Level 4: growth control rate is greater than or equal to 60% and less than 85%) | 5 (Level 5: growth control rate is above 85%) | 5 (Level 5: growth control rate is above 85%) | 3 (Level 3: growth control rate is greater than or equal to 40% and less than 60%) | 3 (Level 3: growth control rate is greater than or equal to 40% and less than 60%) | –
2 | CCCOC(=O)[C@@H](C)O/N=C/c1cc(-n2c(=O)n(C)c(=S)n(C)c2=O)c(F)cc1Cl [4(R)] | 5 (Level 5: growth control rate is above 85%) | 5 (Level 5: growth control rate is above 85%) | 5 (Level 5: growth control rate is above 85%) | 5 (Level 5: growth control rate is above 85%) | 5 (Level 5: growth control rate is above 85%) | 5 (Level 5: growth control rate is above 85%) | –
3 | CCOC(=O)[C@@H](C)O/N=C/c1cc(-n2c(=O)n(C)c(=S)n(C)c2=O)c(F)cc1Cl [3(R)] | 5 (Level 5: growth control rate is above 85%) | 5 (Level 5: growth control rate is above 85%) | 5 (Level 5: growth control rate is above 85%) | 5 (Level 5: growth control rate is above 85%) | 5 (Level 5: growth control rate is above 85%) | 4 (Level 4: growth control rate is greater than or equal to 60% and less than 85%) | –
4 | CCSC(=O)[C@@H](C)O/N=C/c1cc(-n2c(=O)n(C)c(=S)n(C)c2=O)c(F)cc1Cl [168(R)] | 5 (Level 5: growth control rate is above 85%) | 5 (Level 5: growth control rate is above 85%) | 5 (Level 5: growth control rate is above 85%) | 5 (Level 5: growth control rate is above 85%) | 5 (Level 5: growth control rate is above 85%) | 5 (Level 5: growth control rate is above 85%) | –
5 | CCOC(=O)[C@@H](C)O/N=C/c1cc(-n2c(=O)n(C)c(=S)n(C)c2=O)c(F)cc1Br [84(R)] | 5 (Level 5: growth control rate is above 85%) | 5 (Level 5: growth control rate is above 85%) | 5 (Level 5: growth control rate is above 85%) | 5 (Level 5: growth control rate is above 85%) | 4 (Level 4: growth control rate is greater than or equal to 60% and less than 85%) | 4 (Level 4: growth control rate is greater than or equal to 60% and less than 85%) | –
6 | C[C@@H](O/N=C/c1cc(-n2c(=O)cc(C(F)(F)F)n(C)c2=O)c(F)cc1Cl)C(=O)OCCC#N [227(R)] | 5 (Level 5: growth control rate is above 85%) | 5 (Level 5: growth control rate is above 85%) | 5 (Level 5: growth control rate is above 85%) | 5 (Level 5: growth control rate is above 85%) | 5 (Level 5: growth control rate is above 85%) | 5 (Level 5: growth control rate is above 85%) | –
7 | C[C@@H](O/N=C/c1cc(-n2c(=O)cc(C(F)(F)F)n(C)c2=O)c(F)cc1Cl)C(=O)OCc1cccs1 [268(R)] | – | – | – | – | – | – | Weeding effect in post-emergence stage, Echinochloa crusgalli (Echinochloa crusgalli; Dose 30 g/ha): 5 (Level 5: growth control rate is above 85%); Weeding effect in post-emergence stage, Setaria viridis (Setaria viridis; Dose 30 g/ha): 5 (Level 5: growth control rate is above 85%); Weeding effect in post-emergence stage, Abutilon theophrasti (Abutilon theophrasti; Dose 30 g/ha): 5 (Level 5: growth control rate is above 85%); Weeding effect in post-emergence stage, Eleusine indica (Eleusine indica; Dose 30 g/ha): 5 (Level 5: growth control rate is above 85%); Weeding effect in post-emergence stage, Digitaria sanguinalis (Digitaria sanguinalis; Dose 30 g/ha): 5 (Level 5: growth control rate is above 85%); Weeding effect in post-emergence stage, Alopecurus japonicus (Alopecurus japonicus; Dose 30 g/ha): 5 (Level 5: growth control rate is above 85%)
8 | CC(O/N=C/c1cc(-n2c(=O)n(C)c(=S)n(C)c2=O)c(F)cc1Cl)C(=O)OCc1ccco1 (stereo not drawn) [Compound 26] | 5 (Level 5: growth control rate is above 85%) | 5 (Level 5: growth control rate is above 85%) | 5 (Level 5: growth control rate is above 85%) | 5 (Level 5: growth control rate is above 85%) | 5 (Level 5: growth control rate is above 85%) | 5 (Level 5: growth control rate is above 85%) | –
9 | CCCCCCC(C)OC(=O)[C@@H](C)O/N=C/c1cc(-n2c(=O)cc(C(F)(F)F)n(C)c2=O)c(F)cc1Cl (stereo partly drawn) [207(R)] | 5 (Level 5: growth control rate is above 85%) | 5 (Level 5: growth control rate is above 85%) | 5 (Level 5: growth control rate is above 85%) | 5 (Level 5: growth control rate is above 85%) | 5 (Level 5: growth control rate is above 85%) | 5 (Level 5: growth control rate is above 85%) | –
10 | C[C@@H](O/N=C/c1cc(-n2c(=O)n(C)c(=S)n(C)c2=O)c(F)cc1Cl)C(=O)OCCF [10(R)] | 5 (Level 5: growth control rate is above 85%) | 5 (Level 5: growth control rate is above 85%) | 5 (Level 5: growth control rate is above 85%) | 5 (Level 5: growth control rate is above 85%) | 5 (Level 5: growth control rate is above 85%) | 5 (Level 5: growth control rate is above 85%) | –
11 | CC(C)OC(=O)C(C)N(C)N=Cc1cc(-n2c(=O)n(C)c(=S)n(C)c2=O)c(F)cc1Cl (stereo not drawn) [Compound 885] | – | – | – | – | – | – | Weeding effect in post-emergence stage, Echinochloa crusgalli (level) (Echinochloa crusgalli; Dose 30 g/ha): 5 (Level 5: growth control rate is above 85%); Weeding effect in post-emergence stage, Setaria viridis (level) (Setaria viridis; Dose 30 g/ha): 5 (Level 5: growth control rate is above 85%); Weeding effect in post-emergence stage, Abutilon theophrasti (level) (Abutilon theophrasti; Dose 30 g/ha): 5 (Level 5: growth control rate is above 85%); Weeding effect in post-emergence stage, Eleusine indica (level) (Eleusine indica; Dose 30 g/ha): 5 (Level 5: growth control rate is above 85%); Weeding effect in post-emergence stage, Digitaria sanguinalis (level) (Digitaria sanguinalis; Dose 30 g/ha): 5 (Level 5: growth control rate is above 85%); Weeding effect in post-emergence stage, Alopecurus japonicus (level) (Alopecurus japonicus; Dose 30 g/ha): 5 (Level 5: growth control rate is above 85%)
12 | CCCSC(=O)C(C)O/N=C/c1cc(-n2c(=O)cc(C(F)(F)F)n(C)c2=O)c(F)cc1Cl (stereo not drawn) [Compound 399] | – | – | – | – | – | – | Weeding effect in post-emergence stage, Echinochloa crusgalli (level) (Echinochloa crusgalli; Dose 15 g/ha): 5 (Level 5: growth control rate is above 85%); Weeding effect in post-emergence stage, Setaria viridis (level) (Setaria viridis; Dose 15 g/ha): 5 (Level 5: growth control rate is above 85%); Weeding effect in post-emergence stage, Abutilon theophrasti (level) (Abutilon theophrasti; Dose 15 g/ha): 5 (Level 5: growth control rate is above 85%); Weeding effect in post-emergence stage, Eleusine indica (level) (Eleusine indica; Dose 15 g/ha): 5 (Level 5: growth control rate is above 85%); Weeding effect in post-emergence stage, Digitaria sanguinalis (level) (Digitaria sanguinalis; Dose 15 g/ha): 5 (Level 5: growth control rate is above 85%); Weeding effect in post-emergence stage, Alopecurus japonicus (level) (Alopecurus japonicus; Dose 15 g/ha): 5 (Level 5: growth control rate is above 85%)
13 | CSCOC(=O)C(C)O/N=C/c1cc(-n2c(=O)cc(C(F)(F)F)n(C)c2=O)c(F)cc1Cl (stereo not drawn) [Compound 233] | 5 (Level 5: growth control rate is above 85%) | 5 (Level 5: growth control rate is above 85%) | 5 (Level 5: growth control rate is above 85%) | 5 (Level 5: growth control rate is above 85%) | 5 (Level 5: growth control rate is above 85%) | 5 (Level 5: growth control rate is above 85%) | –
14 | C=CCCOC(=O)C(C)O/N=C/c1cc(-n2c(=O)n(C)c(=S)n(C)c2=O)c(F)cc1Cl (racemic) [Compound 6] | 5 (Level 5: growth control rate is above 85%) | 5 (Level 5: growth control rate is above 85%) | 5 (Level 5: growth control rate is above 85%) | 5 (Level 5: growth control rate is above 85%) | 5 (Level 5: growth control rate is above 85%) | 5 (Level 5: growth control rate is above 85%) | –
15 | COC(=O)C(CC1CC1)O/N=C/c1cc(-n2c(=O)cc(C(F)(F)F)n(C)c2=O)c(F)cc1Cl (racemic) [Compound 462] | – | – | – | – | – | – | Weeding effect in post-emergence stage, Echinochloa crusgalli (level) (Echinochloa crusgalli; Dose 15 g/ha): 5 (Level 5: growth control rate is above 85%); Weeding effect in post-emergence stage, Setaria viridis (level) (Setaria viridis; Dose 15 g/ha): 5 (Level 5: growth control rate is above 85%); Weeding effect in post-emergence stage, Abutilon theophrasti (level) (Abutilon theophrasti; Dose 15 g/ha): 5 (Level 5: growth control rate is above 85%); Weeding effect in post-emergence stage, Eleusine indica (level) (Eleusine indica; Dose 15 g/ha): 5 (Level 5: growth control rate is above 85%); Weeding effect in post-emergence stage, Digitaria sanguinalis (level) (Digitaria sanguinalis; Dose 15 g/ha): 5 (Level 5: growth control rate is above 85%); Weeding effect in post-emergence stage, Alopecurus japonicus (level) (Alopecurus japonicus; Dose 15 g/ha): 5 (Level 5: growth control rate is above 85%)
